Consider nine compounds from US6083944A, “Quinoline-containing α-ketoamide cysteine and serine protease inhibitors” (Cephalon, Inc., priority 1998, dated 2000).

Format in all cases: biochemical
One assay has as its target T1, α-chymotrypsin (Bos taurus, UniProt P00766).
T1 construct: purchased Sigma Chem. Co. C-3142
Kind of assay: Inhibition of serine protease α-chymotrypsin (Succ-Ala-Ala-Pro-Phe-AMC hydrolysis). As to conditions: Table 6; pH 7.5. The method, then: (§1) To evaluate inhibitory activity, stock solutions (40 times concentrated) of each compound to be tested were prepared in 100% anhydrous DMSO and 5 μl of each inhibitor preparation was aliquoted into each of three wells of a 96-well plate. Recombinant human calpain I, prepared by the method of Meyer et al. (Biochem. J. 1996, 314: 511-519), was diluted into assay buffer (i.e., 50 mM Tris, 50 mM NaCl, 1 mM EDTA, 1 mM EGTA, and 5 mM β-mercaptoethanol, pH 7.5, including 0.2 mM Succ-Leu-Tyr-MNA), and 175 μl was aliquoted into the same wells containing the independent inhibitor stocks as well as to positive control wells containing 5 μl DMSO, but no compound. To start the reaction, 20 μl of 50 mM CaCl2 in assay buffer was added to all wells of the plate, excepting three, which were used as background signal baseline controls. Substrate hydrolysis was monitored every 5 minutes for a total of 30 minutes. Substrate hydrolysis in the absence of inhibitor was linear for up to 15 minutes.
(§2) Inhibition of calpain I activity was calculated as the percent decrease in the rate of substrate hydrolysis in the presence of inhibitor relative to the rate in its absence. Comparison between the inhibited and control rates was made within the linear range for substrate hydrolysis. The IC50 S of inhibitors (concentration yielding 50% inhibition) were determined from the percent decrease in rates of substrate hydrolysis in the presence of five to seven different concentrations of the test compound. The results were plotted as percent inhibition versus log inhibitor concentration, and the IC50 was calculated by fitting the data to the four-parameter logistic equation shown below using the program GraphPad Prism (GraphPad Software, Inc., San Diego, Calif.).
Additionally, because α-chymotrypsin is not a calcium sensitive enzyme and is constitutively active, following addition of inhibitor stocks to the 96 well plates, 100 μl of a 2-fold concentrated stock of enzyme in dilution buffer was first added and the reaction was started by addition of 100 μl of a 2-fold concentrated stock of substrate in assay buffer. Substrate hydrolysis was monitored every 5 minutes up to 30 minutes using a Fluoroskan II (ex=390 nm em=460 nm).

For a further assay, the target named is T2, cathepsin B (Homo sapiens, UniProt P07858).
T2 construct: purchased Calbiochem 219364
Kind of assay: Inhibition of cathepsin B (Cbz-Phe-Arg-AMC hydrolysis). As to conditions: Table 6; pH 6.0; read-out: Cath. B IC50. The method, then:
as §1, §2
Additionally, the order of reagents added to the plate was altered because the enzyme is consitutively active. Following inhibitor addition to the plates, appropriate 2× concentrated stock dilutions of the enzyme preparations were made in assay buffer and 100 μl added to each well. The assay was initiated by addition of 100 μl of 2× concentrated stock dilution of substrate in assay buffer. Substrate hydrolysis was monitored using a Fluoriskan II (ex=390 nm; em=460 nm).

The target in assay [1] is T3, Recombinant human calpain I (Homo sapiens, UniProt P07384).
T3 construct: made in house
T3 sequence (P07384 1-714): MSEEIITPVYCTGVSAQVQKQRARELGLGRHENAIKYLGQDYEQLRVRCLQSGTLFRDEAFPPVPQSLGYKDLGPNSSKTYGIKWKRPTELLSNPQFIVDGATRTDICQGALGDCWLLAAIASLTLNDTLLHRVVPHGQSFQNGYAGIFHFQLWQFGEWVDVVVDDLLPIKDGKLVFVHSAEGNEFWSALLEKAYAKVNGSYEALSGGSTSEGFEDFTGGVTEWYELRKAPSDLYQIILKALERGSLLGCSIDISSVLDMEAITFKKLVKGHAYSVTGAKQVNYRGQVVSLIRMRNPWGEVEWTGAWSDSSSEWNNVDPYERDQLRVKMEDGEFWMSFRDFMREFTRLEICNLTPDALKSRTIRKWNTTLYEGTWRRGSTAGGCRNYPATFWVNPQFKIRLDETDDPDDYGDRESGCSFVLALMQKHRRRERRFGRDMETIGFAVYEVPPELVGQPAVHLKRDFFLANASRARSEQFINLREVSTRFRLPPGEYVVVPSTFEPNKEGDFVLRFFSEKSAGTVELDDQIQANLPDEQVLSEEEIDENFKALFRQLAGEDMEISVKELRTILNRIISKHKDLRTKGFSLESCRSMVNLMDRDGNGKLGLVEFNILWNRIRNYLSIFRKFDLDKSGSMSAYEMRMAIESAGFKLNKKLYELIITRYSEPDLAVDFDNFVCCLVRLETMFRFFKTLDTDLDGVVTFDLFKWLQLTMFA
The assay can be described thus: Inhibition of calpain I (Succ-Leu-Tyr-MNA hydrolysis). The protocol:
as §1, §2
The parameters a, b, c, and d are defined as follows: a is % inhibition in the absence of inhibitor, b is the slope, c is the IC50, and d is the % inhibition at an infinite concentration of inhibitor.

Take `O=C(NCCNS(=O)(=O)c1ccc([N+](=O)[O-])cc1)C(=O)C(Cc1ccccc1)NC(=O)c1cc(C#Cc2ccccc2)nc2ccccc12` (single isomer, unassigned) [Example 84]: the results for the IC50 against α-chymotrypsin and on cathepsin B were 0.014 µM and 0.348 µM, respectively.

In the case of `O=C(NCCNS(=O)(=O)c1ccc(-c2ccccn2)s1)C(=O)C(Cc1ccccc1)NC(=O)c1cc(C#Cc2ccccc2)nc2ccccc12` (stereo not shown) [Example 86], the IC50 (usually the concentration that gives 50% inhibition) was 0.475 µM against α-chymotrypsin and 1.03 µM on cathepsin B.

For the compound `O=C(NCCNS(=O)(=O)c1ccccc1)C(=O)[C@H](Cc1ccccc1)NC(=O)c1cc(C#Cc2ccccc2)nc2ccccc12` [Example 96], the IC50 in assay [1] (Tables 2-4, pH 7.5) was found to be 0.029 µM; at α-chymotrypsin, 0.066 µM; at cathepsin B, 0.375 µM.

Regarding `O=C(NCCCNS(=O)(=O)c1ccccc1)C(=O)C(Cc1ccccc1)NC(=O)c1cc(C#Cc2ccccc2)nc2ccccc12` (stereo not shown) [Example 100], the IC50 came out at 0.055 µM in assay [1] (Tables 2-4, pH 7.5); 0.036 µM on α-chymotrypsin; 0.36 µM on cathepsin B.

As to `CCONC(=O)C(=O)C(Cc1ccccc1)NC(=O)c1cc(C#Cc2ccccc2)nc2ccccc12` (stereo not shown) [Example 103], the IC50 in assay [1] (Tables 2-4, pH 7.5) stood at 0.065 µM; on α-chymotrypsin it was 0.38 µM; on cathepsin B it was 0.435 µM.

With `O=C(NOCc1ccccc1)C(=O)C(Cc1ccccc1)NC(=O)c1cc(C#Cc2ccccc2)nc2ccccc12` (stereo not shown) [Example 104], the IC50 in assay [1] (Tables 2-4, pH 7.5) was 0.06 µM; against α-chymotrypsin, 1.16 µM; at cathepsin B it was 0.33 µM.

For the compound `CCCC(NC(=O)c1cc(Cl)nc2ccccc12)C(=O)C(=O)NCCNS(=O)(=O)c1ccc(-c2ccccn2)s1` (stereo not shown) [Example 156], the IC50 in assay [1] (Table 5, head prints no unit) amounted to 0.043 µM.

As for `COCC(NC(=O)c1cc(Cl)nc2ccccc12)C(=O)C(=O)NCCNS(=O)(=O)c1ccc(-c2ccccn2)s1` (stereo not shown) [Example 157], the IC50 in assay [1] (Table 5, head prints no unit) is 0.061 µM.

As for `COCC(NC(=O)c1cc(Cl)nc2ccccc12)C(=O)C(=O)NCCNS(=O)(=O)c1ccccc1` (stereo not shown) [Example 158], in assay [1] (Table 5, ** explained as 10,000 nM only in footnotes to Tables 2-4), the “Calpain I IC50 ** (value in parentheses: % inhibition)” value turned out to be 94%.
